Measurements as given in patent US5451508A, “Method and monoclonal antibodies for vitamin B12 determination” (Boehringer Mannheim GmbH, priority 1989, dated 1995).

Test system: monoclonal antibody MAB 1 and MAB 2
Assay: ELISA determination of the cross-reaction of vitamin B12 derivatives with the monoclonal antibodies
Type: binding, mice
Details: for cross-reactivity: monoclonal antibodies according to the invention (e.g. from cell lines ECACC 88101301 and ECACC 88101302), stated in description; for cross-reaction: values identical for MAB 1 and MAB 2, antigen added at 50, 500, 5000 μg/ml, calculated from concentrations giving 50% of max. signal
Description: The plates are re-treated for 10 minutes with 0.9% sodium chloride solution and 1% albumin solution. Subsequently they are washed with 0.9% sodium chloride solution.
Afterwards they are incubated at 37° C. for one hour with 100 μl sample and washed again with 0.9% sodium chloride solution. In order to test the cross-reaction 50, 500 and 5000 μg/ml of the vitamin B12 derivative to be tested is added to the sample solution. A reduction of the measured signal in the presence of the derivative indicates a cross-reaction. A further incubation follows (1 hour, 37° C.) with 450 U/ml of a sheep-Fab-anti-mouse Fcγ peroxidase conjugate. After washing once again with 0.9% sodium chloride the peroxidase activity is determined in the usual way (for example with 2,2'azino-di-[3-ethylbenzthiazoline sulphonate (6)] (ABTS®), 30 minutes at room temperature, the difference in absorbance ΔmA is read at 422 nm).
The antigen to be tested for cross-reaction is added in increasing concentrations (50 μg/ml, 500 μg/ml, 5000 μg/ml) to the monoclonal antibody. Afterwards the cross-reaction is calculated from the following formula: [formula]

Row | Compound | cross-reactivity [%] | cross-reaction
1 | 2-hydroxy-5,6-dimethylbenzimidazolyl-cobamide | 1.5 | 1.5
2 | Purinylcobinamide | 1.1 | 1.1
3 | (carboxy(2-cyanamino-4,5-dimethylphenyl)-amino)-cobamide | 0.07 | 0.07
4 | Cobyrinic acid-diamide | < 0.05 | < 0.05
5 | C/C1=C2/[N-][C@H]([C@H](CC(N)=O)[C@@]2(C)CCC(=O)NC[C@@H](C)OP(=O)([O-])O[C@H]2[C@@H](O)[C@@H](n3cnc4cc(C)c(C)cc43)O[C@@H]2CO)[C@]2(C)N=C(/C(C)=C3N=C(/C=C4N=C1[C@@H](CCC(N)=O)C\4(C)C)[C@@H](CCC(N)=O)[C@]\3(C)CC(N)=O)[C@@H](CCC(N)=O)[C@]2(C)CC(N)=O.[CH3-].[Co+3] [Methylcobalamin] | 100 | 100
